Experimental data reported in patent US20110060037A1, “USE OF NPY Y5 RECEPTOR ANTAGONISTS FOR THE PREVENTION OF PSYCHO-STIMULANT AND OPIOID ABUSE” (priority 2008, published 2011).
Entries after “also recorded” stand apart in the source; their conditions may differ.

What was measured:
NMRI mice [1] = test: Cocaine-induced hyperactivity; assay type: in vivo
Source text: The apparatus for measuring locomotor hyperactivity consisted of 16 activity Plexiglas boxes (37×21×17 cm). Eight dual photocells placed throughout the length of each box, detected movement of the animals. A plate was placed on top of the box in order to keep the mice from jumping out during the sessions. Sawdust was placed in a thin layer on the floor of the box. All activity boxes were connected to an interface (SG 502, Med. Associates Inc., East Fairfield, Vt., USA), measuring each beam-break. A computer and activity software (Ellegaard Systems, DK) were used to record the results from each activity box.
In all activity experiments an i.p. injection of either vehicle or drug was administered 3-7 minutes before testing. The animal was then placed in an activity box and the activity was measured for 30 minutes. […]
Conditioned place preference data were analysed using repeated measure one-way ANOVA between days within each group on all four groups of both experiments. […] Post-conditioning test and reinstatement presented as percent of its own saline group were analysed with a one-way ANOVA followed by post-hoc LSD t-tests. Total crossings were analysed with a one-way ANOVA followed by post-hoc LSD t-tests. Data presented as 5 minutes intervals was analysed using repeated measures ANOVA with treatment as between subjects factor followed by LSD post-hoc t-test. […]

Y5 receptor = molecular target: T1, Y5 receptor (Mus musculus, UniProt O70342); details: cited from earlier work
T1 construct: close to 80% Y5 receptor occupancy in the mouse brain has also been observed between one and four hours after oral administration; host or cells: mouse brain (in vivo, after oral dosing)
T1 sequence (O70342 1-466): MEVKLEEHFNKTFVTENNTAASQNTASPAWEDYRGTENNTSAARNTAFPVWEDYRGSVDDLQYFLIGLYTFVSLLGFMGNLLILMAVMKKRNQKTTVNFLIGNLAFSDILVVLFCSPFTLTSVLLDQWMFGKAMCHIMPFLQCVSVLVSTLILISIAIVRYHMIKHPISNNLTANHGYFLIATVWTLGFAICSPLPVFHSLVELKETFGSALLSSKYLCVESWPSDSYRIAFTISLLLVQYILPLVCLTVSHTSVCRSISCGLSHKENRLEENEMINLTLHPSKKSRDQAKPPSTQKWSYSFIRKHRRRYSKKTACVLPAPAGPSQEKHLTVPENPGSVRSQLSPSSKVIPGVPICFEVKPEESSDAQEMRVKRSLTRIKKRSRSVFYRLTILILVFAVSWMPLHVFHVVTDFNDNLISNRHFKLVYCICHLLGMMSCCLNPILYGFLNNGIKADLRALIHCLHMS

rats = rats treated with L-152,804; cited from earlier work
NMRI mice [2] = test: Acute self-administration: food reinforcement; assay type: in vivo; details: L-152,804 10 mg/kg p.o. two hours before; fasted overnight; P=0.573 vs. vehicle pre-treated ensure; FIG. 3
Description: The self-administration apparatus used was described above. The end of the PVC tubing, mentioned above, was secured on the outside of the self-administration box at the top of the nose-poke hole, thereby enabling the mice to reach the end of the PVC tube to acquire the content used as reinforcer (ensure protein drink, Abbott Laboratories, USA). The animals fasted overnight, with water still available.
Male NMRI mice received p.o. administration of L-152,804 (10 mg/kg) or corresponding vehicle. Two hours later, the animals were subjected to the self-administration procedure described above with access to PVC tubing containing ensure (nvehicle=11, nL-152,804=13) or without any drink content (=control, n=16).
Data were analyzed using SPSS (SPSS Inc, USA). In the self-administration experiments, two animals from the L-152,804 experiment were excluded. […] In the first and third self-administration experiments, data were analyzed using one-way analysis of variance (ANOVA) followed by post-hoc LSD t-test. […] Subsequently, after significant treatment effect of cocaine, data were analyzed using one-way ANOVA followed by post-hoc LSD t-tests. […]

NMRI mice [3] = test: Acute self-administration: cocaine reinforcement; assay type: in vivo; details: for nose-poking when saline was the i.v.-reinforcer (per se effect): L-152,804 10 mg/kg p.o. vs vehicle p.o.
[4] = 2 hrs after oral administration, 10 mg/kg; cited from earlier work
C57Bl/6 mice = test: Cocaine-induced conditioned place preference (CPP); assay type: in vivo
Source text: The CPP apparatus consisted of eight parallel set-ups, each consisting of two separate compartments measuring 19×19×19 cm. The walls extended upwards with clear Plexiglas plates to a total height of 43 cm, having the function of preventing the mice from jumping out, and at the same time allowing light to enter. The two compartments differed in visual as well as tactile cues. In one compartment, the walls and floor were painted white, and the floor was smooth, whereas in the other compartment, the walls were black, and the floor provided texture by insertion of a grey Lego plate. During habituation, post-conditioning test, extinction, and reinstatement, the mice were free to move between the two compartments through a square hole (3.5×3.5 cm). During conditioning, this opening was closed by insertion of a wooden plate. The movements of the animals were measured with the video-tracking program EthoVision (Noldus, Netherlands).
The CPP procedure consisted of the following consecutive phases: Habituation (2 days), conditioning (8 days), post-conditioning test (1 day), extinction (3 days), reinstatement test (1 day). Habituation (days 1-2): Each day the mice were placed into the white compartment of the CPP boxes with the door open and allowed to explore the compartments for 20 minutes to become habituated to the CPP apparatus. On the second day (i.e., the pre-conditioning test), the time spent in each of the two compartments (black or white) was recorded. This determined the preferred compartment of each mouse. No injections were given during these sessions.
Conditioning (days 3-10): Before eight daily 30 minutes conditioning sessions the animals received i.p. injections of either drug or isotonic saline, and the door between the two compartments was closed. Drug groups received drug injections on drug-days and were placed 2-5 min. later in their non-preferred compartment. On non drug-days, these animals received vehicle injections and were subsequently placed in their preferred compartment. All control animals received injections with vehicle each day and were placed in alternating compartments (black/white) on alternating days. […]
Post-conditioning test (day 11): The test was conducted on the day after the last conditioning session. Mice were allowed free access to both compartments for 20 minutes during which the amount of time spent in each compartment was recorded as described above for the pre-conditioning test. […]
Extinction and reinstatement: During an extinction period of three days the animals were exposed to the apparatus as during the post-conditioning test for 20 minutes each day with open doors and without prior injection. […] Subsequently, the time spent in the previously drug-paired (non-preferred) compartment was recorded for 20 min. […]

Y5-KO and WT mice = test: Acute self-administration of cocaine in Y5-KO and WT mice; assay type: in vivo; details: inverted U-shaped curve, FIG. 4

For `CC1(C)CC(=O)C(C2C3=C(CC(C)(C)CC3=O)Oc3ccccc32)C(=O)C1` [L-152,804, 5,5-Dimethyl-2-(2,3,4,9-tetrahydro-3,3-dimethyl-1oxo-1H-xanthen-9-yl)-1,3-cyclohexanedione], the “cocaine-induced hyperactivity (locomotor activity, beam crossings)” value (NMRI mice [1]; L-152,804 10 mg/kg p.o. two hours prior to cocaine 10 mg/kg, 30 min observation and 5-min intervals, FIG. 7) is listed as “appeared to be attenuated; also recorded: prevented a significant cocaine-induced increase in locomotor activity”, the “locomotor activity in saline i.p.-treated animals” value (NMRI mice [1]; L-152,804 10 mg/kg p.o. vs vehicle) is listed as “No effect” and the “Y5 receptor occupancy in mouse brain” value (Y5 receptor; 2 h after oral administration of L-152,804) is listed as 80%. For the same compound, the “Y5 receptor occupancy in the mouse brain” value (Y5 receptor; between one and four hours after oral administration of L-152,804) was roughly 80%, the distance travelled (rats) was “no change in distance travelled” and the “food (ensure protein drink) self-administration” value (NMRI mice [2]) was “had no effect; also recorded: did not alter”. The “nose-poking when saline was the i.v.-reinforcer (per se effect)” value (NMRI mice [3]) was “no effect; also recorded: did not significantly decrease”, the “nose-poking when saline was the i.v.-reinforcer (per se effect)” value (NMRI mice [3]; listed as L-152,802) was “No per se effect” and the “self-administration of cocaine (nose-poking), significance of decrease” value (NMRI mice [3]; L-152,804 10 mg/kg p.o., cocaine 0.03 mg/kg/infusion, P=0.004) was “reaching significance”. For the same compound, the “cocaine self-administration vs. saline i.v. in L-152,804-pretreated mice” value (NMRI mice [3]; L-152,804 10 mg/kg p.o., cocaine 0.01-1.0 mg/kg/infusion, post-hoc LSD t-tests) was “no significant doses vs. saline; also recorded: did not self-administer cocaine at a significantly higher rate”, the “downward shift of the cocaine dose-response curve (efficacy of cocaine)” value (NMRI mice [3]; L-152,804 10 mg/kg p.o., vertex of fitted parabola, likelihood ratio test P<0.001) was “shifted down; also recorded: shifted significantly downward” and the “shift of the cocaine dose-response curve to the right or left (potency of cocaine)” value (NMRI mice [3]; L-152,804 10 mg/kg p.o., vertex of fitted parabola, likelihood ratio test P=0.25) was “neither shifted significantly to the right nor to the left; also recorded: showed a tendency toward a rightward shift”. The “self-administration of cocaine (nose-poking), significance of decrease” value (NMRI mice [3]; L-152,804 30 mg/kg p.o., cocaine 0.03 mg/kg/infusion, P=0.002) was “reaching significance”, the “self-administration of cocaine (nose-poking)” value (NMRI mice [3]; cocaine 0.03 mg/kg/infusion i.v., L-152,804 3, 10 or 30 mg/kg p.o. two hours before, FIG. 1) was “significantly and dose-dependently decreased” and the “nose-poking frequency of i.v.-administered cocaine at the other self-administered cocaine dose” value (NMRI mice [3]; second experiment, L-152,804 10 mg/kg p.o., cocaine 0.01 mg/kg/infusion as printed) was “showed a similar trend”. For the same compound, the “nose-poking frequency of i.v.-administered cocaine at the peak dose of cocaine” value (NMRI mice [3]; second experiment, L-152,804 10 mg/kg p.o., cocaine 0.03 mg/kg/infusion, P=0.006, FIG. 2) was “significantly reduced”, the “amount of L-152,804 in the rat brain” value [4] was “significant amount” and the “induction of cocaine place preference (post-conditioning vs. pre-conditioning test)” value (C57Bl/6 mice; L-152,804 3, 10, 30 mg/kg p.o. two hours prior to cocaine 10 mg/kg i.p. conditioning, FIG. 5A) was “did not attenuate; also recorded: caused significant place preference similar to that observed without the Y5-antagonist”. The “reinstatement of cocaine-induced place preference vs. own pre-conditioning test” value (C57Bl/6 mice; L-152,804 3, 10, 30 mg/kg p.o., cocaine priming 5 mg/kg, FIG. 5A) was “absent; also recorded: prevented significant reinstatement”, the “reinstatement as percent of the vehicle p.o./saline i.p. group” value (C57Bl/6 mice; L-152,804 3, 10, 30 mg/kg p.o., cocaine priming 5 mg/kg, FIG. 5B) was “dose-dependently attenuated; also recorded: only the highest dose of L-152,804 (30 mg/kg) blocked reinstatement” and the “extinction of cocaine place preference” value (C57Bl/6 mice; L-152,804 3, 10, 30 mg/kg p.o., three extinction days, vehicle/cocaine group reached full extinction on day 3) was “significantly faster; also recorded: full extinction already on the first extinction day”.
In the case of `COC(=O)[C@H]1[C@@H](OC(=O)c2ccccc2)C[C@@H]2CC[C@H]1N2C` [cocaine], the “cocaine dose at which self-administration reaches maximum” value (NMRI mice [3]; vehicle p.o. pre-treated NMRI mice, inverted U-shaped curve) is reported as 0.03 mg/kg/infusion and the “cocaine dose at which self-administration reaches maximum” value (Y5-KO and WT mice) is reported as 0.03 mg/kg/infusion.
